The numbers were not newly measured in patent publication US9974722B2, “Reduced-ethanol mouth rinse formulations” (Johnson & Johnson Consumer Inc., priority 2016, dated 2018), which cites them from elsewhere.

As for `CC1CCC(C(C)C)C(O)C1` (stereo not shown) [Menthol], the solubility in alcohol entry is on record as “only slightly soluble”.
